Source: the NIST ThermoML archive (doi:10.1021/je200721d)
Numbers after ± are expanded uncertainties.

Assay: xn = mol fraction of the nth substance listed
Settings: Liquid, Vibrating tube method

CCCCCCCCCC [decane] + CCCCCC
Settings	mass density [kg/m3]
323.14 K, 13000 kPa, x2 = 0.2185	707.88 ± 0.34
323.14 K, 13000 kPa, x2 = 0.4968	691.97 ± 0.36
323.14 K, 14000 kPa, x2 = 0.0456	717.02 ± 0.34
323.14 K, 14000 kPa, x2 = 0.2185	708.71 ± 0.35
323.14 K, 14000 kPa, x2 = 0.4968	692.85 ± 0.36
323.14 K, 15000 kPa, x2 = 0.0456	717.82 ± 0.35
323.14 K, 15000 kPa, x2 = 0.2185	709.54 ± 0.36
323.14 K, 15000 kPa, x2 = 0.4968	693.71 ± 0.37
323.14 K, 16000 kPa, x2 = 0.0456	718.6 ± 0.36
323.14 K, 16000 kPa, x2 = 0.2185	710.33 ± 0.37
323.14 K, 16000 kPa, x2 = 0.4968	694.57 ± 0.38
323.14 K, 17000 kPa, x2 = 0.0456	719.38 ± 0.37
323.14 K, 17000 kPa, x2 = 0.2185	711.14 ± 0.37
323.14 K, 17000 kPa, x2 = 0.4968	695.4 ± 0.39
323.14 K, 18000 kPa, x2 = 0.0456	720.14 ± 0.37
323.14 K, 18000 kPa, x2 = 0.2185	711.93 ± 0.38
323.14 K, 18000 kPa, x2 = 0.4968	696.25 ± 0.4
323.14 K, 19000 kPa, x2 = 0.0456	720.9 ± 0.38
323.14 K, 19000 kPa, x2 = 0.2185	712.7 ± 0.39
323.14 K, 19000 kPa, x2 = 0.4968	697.05 ± 0.41
323.14 K, 20000 kPa, x2 = 0.0456	721.64 ± 0.39
323.14 K, 20000 kPa, x2 = 0.2185	713.47 ± 0.4
323.14 K, 20000 kPa, x2 = 0.4968	697.87 ± 0.42
323.14 K, 21000 kPa, x2 = 0.0456	722.37 ± 0.4
323.14 K, 21000 kPa, x2 = 0.2185	714.23 ± 0.41
323.14 K, 21000 kPa, x2 = 0.4968	698.66 ± 0.42
323.14 K, 22000 kPa, x2 = 0.0456	723.1 ± 0.4
323.14 K, 22000 kPa, x2 = 0.2185	714.97 ± 0.41
323.14 K, 22000 kPa, x2 = 0.4968	699.42 ± 0.43
323.14 K, 23000 kPa, x2 = 0.0456	723.81 ± 0.41
323.14 K, 23000 kPa, x2 = 0.2185	715.7 ± 0.42
323.14 K, 23000 kPa, x2 = 0.4968	700.17 ± 0.44
323.14 K, 24000 kPa, x2 = 0.0456	724.52 ± 0.42
323.14 K, 24000 kPa, x2 = 0.2185	716.43 ± 0.43
323.14 K, 24000 kPa, x2 = 0.4968	700.91 ± 0.45
323.14 K, 25000 kPa, x2 = 0.0456	725.21 ± 0.43
323.14 K, 25000 kPa, x2 = 0.2185	717.13 ± 0.44
323.14 K, 25000 kPa, x2 = 0.4968	701.65 ± 0.46
323.16 K, 1000 kPa, x2 = 0.7524	659.51 ± 0.27
323.16 K, 2000 kPa, x2 = 0.7524	660.73 ± 0.28
323.16 K, 3000 kPa, x2 = 0.7524	661.92 ± 0.29
323.16 K, 4000 kPa, x2 = 0.7524	663.04 ± 0.29
323.16 K, 5000 kPa, x2 = 0.7524	664.17 ± 0.3
323.16 K, 6000 kPa, x2 = 0.7524	665.29 ± 0.31
323.16 K, 7000 kPa, x2 = 0.7524	666.38 ± 0.32
323.16 K, 8000 kPa, x2 = 0.7524	667.43 ± 0.33
323.16 K, 9000 kPa, x2 = 0.7524	668.5 ± 0.34
323.16 K, 10000 kPa, x2 = 0.7524	669.53 ± 0.34
323.16 K, 10990 kPa, x2 = 0.7524	670.57 ± 0.35
323.16 K, 12000 kPa, x2 = 0.7524	671.56 ± 0.36
323.16 K, 13000 kPa, x2 = 0.7524	672.52 ± 0.37
323.16 K, 14000 kPa, x2 = 0.7524	673.49 ± 0.38
323.16 K, 15000 kPa, x2 = 0.7524	674.44 ± 0.39
323.16 K, 16000 kPa, x2 = 0.7524	675.39 ± 0.4
323.16 K, 17000 kPa, x2 = 0.7524	676.32 ± 0.41
323.16 K, 18000 kPa, x2 = 0.7524	677.22 ± 0.42
323.16 K, 19000 kPa, x2 = 0.7524	678.11 ± 0.43
323.16 K, 20000 kPa, x2 = 0.7524	678.99 ± 0.44
323.16 K, 21000 kPa, x2 = 0.7524	679.85 ± 0.44
323.16 K, 22000 kPa, x2 = 0.7524	680.67 ± 0.45
323.16 K, 23000 kPa, x2 = 0.7524	681.51 ± 0.46
323.16 K, 24000 kPa, x2 = 0.7524	682.33 ± 0.47
323.16 K, 25000 kPa, x2 = 0.7524	683.11 ± 0.48
332.58 K, 1000 kPa, x2 = 0.4968	671.98 ± 0.27
332.58 K, 2000 kPa, x2 = 0.4968	673.11 ± 0.27
332.58 K, 3000 kPa, x2 = 0.4968	674.24 ± 0.28
332.58 K, 4000 kPa, x2 = 0.4968	675.37 ± 0.29
332.58 K, 5000 kPa, x2 = 0.4968	676.46 ± 0.29
332.58 K, 6000 kPa, x2 = 0.4968	677.53 ± 0.3
332.58 K, 7000 kPa, x2 = 0.4968	678.61 ± 0.31
332.58 K, 8000 kPa, x2 = 0.4968	679.66 ± 0.32
332.58 K, 9000 kPa, x2 = 0.4968	680.68 ± 0.33
332.58 K, 10000 kPa, x2 = 0.4968	681.7 ± 0.34
332.58 K, 10990 kPa, x2 = 0.4968	682.69 ± 0.34
332.58 K, 12000 kPa, x2 = 0.4968	683.66 ± 0.35
332.58 K, 13000 kPa, x2 = 0.4968	684.64 ± 0.36
332.58 K, 14000 kPa, x2 = 0.4968	685.59 ± 0.37
332.58 K, 15000 kPa, x2 = 0.4968	686.54 ± 0.38
332.58 K, 16000 kPa, x2 = 0.4968	687.44 ± 0.39
332.58 K, 17000 kPa, x2 = 0.4968	688.35 ± 0.4
332.58 K, 18000 kPa, x2 = 0.4968	689.24 ± 0.4
332.58 K, 19000 kPa, x2 = 0.4968	690.12 ± 0.41
332.58 K, 20000 kPa, x2 = 0.4968	690.99 ± 0.42
332.58 K, 21000 kPa, x2 = 0.4968	691.85 ± 0.43
332.58 K, 22000 kPa, x2 = 0.4968	692.69 ± 0.44
332.58 K, 23000 kPa, x2 = 0.4968	693.52 ± 0.45
332.58 K, 24000 kPa, x2 = 0.4968	694.34 ± 0.46
332.58 K, 25000 kPa, x2 = 0.4968	695.13 ± 0.47
332.93 K, 1000 kPa, x2 = 0.8991	636.12 ± 0.28
332.93 K, 2000 kPa, x2 = 0.8991	637.35 ± 0.29
332.93 K, 3000 kPa, x2 = 0.8991	638.61 ± 0.29
332.93 K, 4000 kPa, x2 = 0.8991	639.84 ± 0.3
332.93 K, 5000 kPa, x2 = 0.8991	641.09 ± 0.31
332.93 K, 6000 kPa, x2 = 0.8991	642.3 ± 0.32
